From article PMC8279981, “A first-in-human, phase 1 study of the NEDD8 activating enzyme E1 inhibitor TAS4464 in patients with advanced solid tumors” (Investigational New Drugs, 2021)

Test system: patients with advanced or metastatic solid tumors
Test: Phase 1 study: treatment-related adverse events (NCI CTCAE v4.03)
Assay type: in vivo, human
Experimental: The highest non-severely toxic dose was derived from a dog toxicology study and was used to calculate a clinical starting dose of 10 mg/m^2, which corresponds to one-sixth of the human-equivalent dose. The maximum tolerated dose (MTD) of TAS4464 was investigated using an accelerated titration design. Initially, the starting TAS4464 dose was 10 mg/m^2 and was followed by an initial accelerated stage (i.e., weekly dosing phase) with 100% dose-step increments (level 1: 10 mg/m^2, level 2: 20 mg/m^2, level 3: 40 mg/m^2, and level 4: 56 mg/m^2). The 100% dose-step increments continued until the occurrence of a grade ≥ 2 drug-related toxicity within Cycle 1; dose-limiting toxicity (DLT) within Cycle 1; the next dose level reaching 60 mg/m^2; or any safety concerns. Thereafter, 40% increments were employed in the standard stage.
In the standard stage, three to six patients were to be enrolled, and the dose was escalated in 40% increments if none of the first three patients experienced a DLT. If one patient experienced a DLT, three additional patients were to be enrolled at the same dose level. If two of three or two of six patients experienced a DLT, the dose escalation was to be ceased. […] Additionally, DLT criteria regarding abnormal liver function and discontinuation criteria for study drug administration were added. The TAS4464 dose level for Day 1 of Cycle 1 was then set to 40 mg/m^2 (level 3).
Therefore, TAS4464 was administered every 7 days by 1-h intravenous infusion (± 10 min) at the dose assigned to each level. Study treatment was repeated every 28 days. The dosing regimens of each cohort are summarized in Supplementary Fig. 1.
Secondary objectives included assessment of AEs, treatment-related AEs, objective response rate (ORR), disease control rate (DCR), progression-free survival (PFS), and PK, pharmacodynamic, and pharmacogenomic (PGx) parameters with TAS4464 administration. The National Cancer Institute Common Terminology Criteria for Adverse Events (NCI CTCAE) v4.03 [17] was used to assess the severity of AEs. […] RECIST v1.1 [16] was used to determine clinical response, and all computed tomography images were assessed by the physician at the study site after completion of the imaging procedure. The ORR was defined as the percentage of patients with the best overall response of complete response (CR) or partial response (PR). The DCR was the percentage of patients with a best overall response of CR, PR, stable disease (SD), or non-CR/non-progressive disease (PD). PFS was defined as the time from the date of enrollment until the date of investigator-assessed radiological disease progression or death due to any cause, whichever occurred first.

[1] = All-grade, weekly dosing Level 1 (10 mg/m^2), n = 1
[2] = All-grade, weekly dosing Level 2 (20 mg/m^2), n = 1
[3] = All-grade, weekly dosing Level 3 (40 mg/m^2), n = 3
[4] = All-grade, weekly dosing Level 4 (56 mg/m^2), n = 5
[5] = All-grade, weekly dosing with lead-in Level 3 (20 → 40 mg/m^2), n = 3
[6] = All-grade, weekly dosing with lead-in Level 4 (20 → 56 mg/m^2), n = 3

CCOc1cccc(F)c1C#Cc1cn([C@@H]2O[C@H](CNS(N)(=O)=O)[C@@H](O)[C@H]2O)c2ncnc(N)c12 [TAS4464]
Grade ≥ 2 abnormal liver function tests (10 or 20 mg/m^2 weekly doses): did not occur | Grade ≥ 2 abnormal liver function tests (40 and 56 mg/m^2 weekly doses): five patients | AEs leading to dose reduction (ALT increased, weekly dosing level 4): one patient each | AEs leading to treatment discontinuation (AST and ALT increased, weekly dosing with lead-in period level 4): one patient each | ALP increased (treatment-related adverse event) (All-grade, Total, N = 16): 7 (43.8) n (%) | ALT increased (treatment-related adverse event) (All-grade, Total, N = 16): 11 (68.8) n (%) | AST increased (treatment-related adverse event) (All-grade, Total, N = 16): 10 (62.5) n (%) | Anemia (treatment-related adverse event) (All-grade, Total, N = 16): 3 (18.8) n (%) | Blood bilirubin increased (treatment-related adverse event) (All-grade, Total, N = 16): 3 (18.8) n (%) | Decreased appetite (treatment-related adverse event) (All-grade, Total, N = 16): 5 (31.3) n (%) | Diarrhea (treatment-related adverse event) (All-grade, Total, N = 16): 3 (18.8) n (%) | Fatigue (treatment-related adverse event) (All-grade, Total, N = 16): 2 (12.5) n (%) | GGT increased (treatment-related adverse event) (All-grade, Total, N = 16): 4 (25.0) n (%) | Hypoalbuminemia (treatment-related adverse event) (All-grade, Total, N = 16): 2 (12.5) n (%) | Malaise (treatment-related adverse event) (All-grade, Total, N = 16): 3 (18.8) n (%) | Nausea (treatment-related adverse event) (All-grade, Total, N = 16): 7 (43.8) n (%) | Neuropathy peripheral (treatment-related adverse event) (All-grade, Total, N = 16): 2 (12.5) n (%) | Pyrexia (treatment-related adverse event) (All-grade, Total, N = 16): 2 (12.5) n (%) | Rash (treatment-related adverse event) (All-grade, Total, N = 16): 3 (18.8) n (%) | Vomiting (treatment-related adverse event) (All-grade, Total, N = 16): 4 (25.0) n (%) | WBC decreased (treatment-related adverse event) (All-grade, Total, N = 16): 3 (18.8) n (%) | ALP increased (treatment-related adverse event) [1]: 0 n (%) | ALT increased (treatment-related adverse event) [1]: 1 (100.0) n (%) | AST increased (treatment-related adverse event) [1]: 1 (100.0) n (%) | Anemia (treatment-related adverse event) [1]: 0 n (%) | Blood bilirubin increased (treatment-related adverse event) [1]: 0 n (%) | Decreased appetite (treatment-related adverse event) [1]: 0 n (%) | Diarrhea (treatment-related adverse event) [1]: 0 n (%) | Fatigue (treatment-related adverse event) [1]: 0 n (%) | GGT increased (treatment-related adverse event) [1]: 0 n (%) | Hypoalbuminemia (treatment-related adverse event) [1]: 1 (100.0) n (%) | Malaise (treatment-related adverse event) [1]: 0 n (%) | Nausea (treatment-related adverse event) [1]: 0 n (%) | Neuropathy peripheral (treatment-related adverse event) [1]: 0 n (%) | Pyrexia (treatment-related adverse event) [1]: 0 n (%) | Rash (treatment-related adverse event) [1]: 0 n (%) | Vomiting (treatment-related adverse event) [1]: 0 n (%) | WBC decreased (treatment-related adverse event) [1]: 0 n (%) | ALP increased (treatment-related adverse event) [2]: 0 n (%) | ALT increased (treatment-related adverse event) [2]: 1 (100.0) n (%) | AST increased (treatment-related adverse event) [2]: 0 n (%) | Anemia (treatment-related adverse event) [2]: 0 n (%) | Blood bilirubin increased (treatment-related adverse event) [2]: 0 n (%) | Decreased appetite (treatment-related adverse event) [2]: 0 n (%) | Diarrhea (treatment-related adverse event) [2]: 0 n (%) | Fatigue (treatment-related adverse event) [2]: 0 n (%) | GGT increased (treatment-related adverse event) [2]: 0 n (%) | Hypoalbuminemia (treatment-related adverse event) [2]: 0 n (%) | Malaise (treatment-related adverse event) [2]: 0 n (%) | Nausea (treatment-related adverse event) [2]: 0 n (%) | Neuropathy peripheral (treatment-related adverse event) [2]: 0 n (%) | Pyrexia (treatment-related adverse event) [2]: 0 n (%) | Rash (treatment-related adverse event) [2]: 0 n (%) | Vomiting (treatment-related adverse event) [2]: 0 n (%) | WBC decreased (treatment-related adverse event) [2]: 0 n (%) | ALP increased (treatment-related adverse event) [3]: 2 (66.7) n (%) | ALT increased (treatment-related adverse event) [3]: 1 (33.3) n (%) | AST increased (treatment-related adverse event) [3]: 1 (33.3) n (%) | Anemia (treatment-related adverse event) [3]: 0 n (%) | Blood bilirubin increased (treatment-related adverse event) [3]: 1 (33.3) n (%) | Decreased appetite (treatment-related adverse event) [3]: 2 (66.7) n (%) | Diarrhea (treatment-related adverse event) [3]: 1 (33.3) n (%) | Fatigue (treatment-related adverse event) [3]: 1 (33.3) n (%) | GGT increased (treatment-related adverse event) [3]: 1 (33.3) n (%) | Hypoalbuminemia (treatment-related adverse event) [3]: 1 (33.3) n (%) | Malaise (treatment-related adverse event) [3]: 1 (33.3) n (%) | Nausea (treatment-related adverse event) [3]: 2 (66.7) n (%) | Neuropathy peripheral (treatment-related adverse event) [3]: 0 n (%) | Pyrexia (treatment-related adverse event) [3]: 0 n (%) | Rash (treatment-related adverse event) [3]: 0 n (%) | Vomiting (treatment-related adverse event) [3]: 1 (33.3) n (%) | WBC decreased (treatment-related adverse event) [3]: 1 (33.3) n (%) | ALP increased (treatment-related adverse event) [4]: 4 (80.0) n (%) | ALT increased (treatment-related adverse event) [4]: 5 (100.0) n (%) | AST increased (treatment-related adverse event) [4]: 4 (80.0) n (%) | Anemia (treatment-related adverse event) [4]: 1 (20.0) n (%) | Blood bilirubin increased (treatment-related adverse event) [4]: 2 (40.0) n (%) | Decreased appetite (treatment-related adverse event) [4]: 2 (40.0) n (%) | Diarrhea (treatment-related adverse event) [4]: 2 (40.0) n (%) | Fatigue (treatment-related adverse event) [4]: 1 (20.0) n (%) | GGT increased (treatment-related adverse event) [4]: 3 (60.0) n (%) | Hypoalbuminemia (treatment-related adverse event) [4]: 0 n (%) | Malaise (treatment-related adverse event) [4]: 2 (40.0) n (%) | Nausea (treatment-related adverse event) [4]: 4 (80.0) n (%) | Neuropathy peripheral (treatment-related adverse event) [4]: 2 (40.0) n (%) | Pyrexia (treatment-related adverse event) [4]: 0 n (%) | Rash (treatment-related adverse event) [4]: 2 (40.0) n (%) | Vomiting (treatment-related adverse event) [4]: 2 (40.0) n (%) | WBC decreased (treatment-related adverse event) [4]: 1 (20.0) n (%) | ALP increased (treatment-related adverse event) [5]: 0 n (%) | ALT increased (treatment-related adverse event) [5]: 1 (33.3) n (%) | AST increased (treatment-related adverse event) [5]: 2 (66.7) n (%) | Anemia (treatment-related adverse event) [5]: 1 (33.3) n (%) | Blood bilirubin increased (treatment-related adverse event) [5]: 0 n (%) | Decreased appetite (treatment-related adverse event) [5]: 1 (33.3) n (%) | Diarrhea (treatment-related adverse event) [5]: 0 n (%) | Fatigue (treatment-related adverse event) [5]: 0 n (%) | GGT increased (treatment-related adverse event) [5]: 0 n (%) | Hypoalbuminemia (treatment-related adverse event) [5]: 0 n (%) | Malaise (treatment-related adverse event) [5]: 0 n (%) | Nausea (treatment-related adverse event) [5]: 1 (33.3) n (%) | Neuropathy peripheral (treatment-related adverse event) [5]: 0 n (%) | Pyrexia (treatment-related adverse event) [5]: 2 (66.7) n (%) | Rash (treatment-related adverse event) [5]: 0 n (%) | Vomiting (treatment-related adverse event) [5]: 1 (33.3) n (%) | WBC decreased (treatment-related adverse event) [5]: 0 n (%) | ALP increased (treatment-related adverse event) [6]: 1 (33.3) n (%) | ALT increased (treatment-related adverse event) [6]: 2 (66.7) n (%) | AST increased (treatment-related adverse event) [6]: 2 (66.7) n (%) | Anemia (treatment-related adverse event) [6]: 1 (33.3) n (%) | Blood bilirubin increased (treatment-related adverse event) [6]: 0 n (%) | Decreased appetite (treatment-related adverse event) [6]: 0 n (%) | Diarrhea (treatment-related adverse event) [6]: 0 n (%) | Fatigue (treatment-related adverse event) [6]: 0 n (%) | GGT increased (treatment-related adverse event) [6]: 0 n (%) | Hypoalbuminemia (treatment-related adverse event) [6]: 0 n (%) | Malaise (treatment-related adverse event) [6]: 0 n (%) | Nausea (treatment-related adverse event) [6]: 0 n (%) | Neuropathy peripheral (treatment-related adverse event) [6]: 0 n (%) | Pyrexia (treatment-related adverse event) [6]: 0 n (%) | Rash (treatment-related adverse event) [6]: 1 (33.3) n (%) | Vomiting (treatment-related adverse event) [6]: 0 n (%) | WBC decreased (treatment-related adverse event) [6]: 1 (33.3) n (%) | ALP increased (treatment-related adverse event) (Grade ≥ 3, Total, N = 16): 1 (6.3) n (%) | ALT increased (treatment-related adverse event) (Grade ≥ 3, Total, N = 16): 5 (31.3) n (%) | AST increased (treatment-related adverse event) (Grade ≥ 3, Total, N = 16): 5 (31.3) n (%)
